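All cell lines were grown in 96-well plates and treated with compound for 48 hours. At the GI50, growth is halved. Definition used: TGI = concentration required for complete inhibition of growth.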
Tests used:
Assay in all cases: NCI-60 cell line screen, 48 h
MDA-MB-435 = test system: MDA-MB-435
NCI/ADR-RES ovarian = test system: NCI/ADR-RES ovarian
BT-549 breast = test system: BT-549 breast
DU-145 prostate = test system: DU-145 prostate
DLD-1 colon = test system: DLD-1 colon
DMS 114 small cell lung = test system: DMS 114 small cell lung
LXFL 529 NSCLC = test system: LXFL 529 NSCLC
MDA-N = test system: MDA-N

| Structure (SMILES) | GI50 (MDA-MB-435) [µM] | TGI (MDA-MB-435) [µM] | GI50 (NCI/ADR-RES ovarian) [µM] | TGI (NCI/ADR-RES ovarian) [µM] | GI50 (BT-549 breast) [µM] | TGI (BT-549 breast) [µM] | GI50 (DU-145 prostate) [µM] | TGI (DU-145 prostate) [µM] | TGI (DLD-1 colon) [µM] | TGI (DMS 114 small cell lung) [µM] | TGI (LXFL 529 NSCLC) [µM] | GI50 (DLD-1 colon) [µM] | GI50 (LXFL 529 NSCLC) [µM] | TGI (MDA-N) [µM] |
| --- | --- | --- | --- | --- | --- | --- | --- | --- | --- | --- | --- | --- | --- | --- |
| CCOC(=O)c1cnn(-c2ccnc3c(C(F)(F)F)cccc23)c1N | > 100 | > 100 | > 100 | > 100 | 70.7 | > 100 | > 100 | > 100 |  |  |  |  |  |  |
| CC1=CC(=O)C(C(C)=Nc2ccccc2Cl)C(=O)O1 (configuration not stated) | > 100 | > 100 | > 100 | > 100 |  |  | > 100 | > 100 |  |  |  |  |  |  |
| COc1ccc2c(c1)nc(N)c1c3cccnc3cn21 |  |  | 0.0382 | 50.2 | 0.447 | 28.9 | 0.0561 | > 33.6 |  |  |  |  |  |  |
| CCOC(=O)N1CCN(S(=O)(=O)c2oc(-c3ccc(Cl)cc3)nc2C#N)CC1 | 2.32 | 5.24 | 12.2 | 47.6 | 2.22 | 5.6 | 2.48 | 6.31 |  |  |  |  |  |  |
| C/C=C(/CCCCNCCCC)[Si](C)(C)C |  |  |  |  |  |  |  |  | 29.8 | 33.5 | 29.3 |  |  |  |
| CCCCC[C@H]1C/C=C2/C(=O)C(Cl)=C[C@@H]2C/C=C\CCCC(=O)O[C@@H](CCCCC)C/C=C2/C(=O)C(Cl)=C[C@@H]2C/C=C\CCCC(=O)O1 | 0.344 | 0.793 | 2.44 | 9.46 | 0.33 | 0.836 | 0.494 | 1.74 |  |  |  |  |  |  |
| Cc1cn2c(/C=N/N/C(N)=N\N)c(-c3ccc(Cl)c([N+](=O)[O-])c3)nc2s1 | 1.05 | 2.22 | 15.7 | 46.8 | 1.12 | 2.36 | 1.12 | 3.65 |  |  |  |  |  |  |
| S=c1ssc(Sc2ccccn2)c1Cl | 16.8 | 31.5 | 13.9 | 26.8 |  |  | 6.52 | 20.2 |  |  |  |  |  |  |
| NCc1ccc(-n2c(-c3nonc3N)nc3cnccc32)cc1 | 20.1 | > 25 | > 25 | > 25 | 0.964 | > 25 | 11.4 | > 25 |  |  |  |  |  |  |
| CC(C)=CC(=O)CC(=O)C(=O)Nc1ccc(Cl)c(Cl)c1 |  |  |  |  |  |  |  |  | > 100 | > 100 | > 100 |  |  |  |
| CC(=O)C1=C([O-])C(C)OC1=O.CC(=O)C1=C([O-])C(C)OC1=O.[NH-]C1CCCC[C@H]1[NH-].[Pt+4] (configuration not stated) |  |  |  |  |  |  |  |  | > 100 |  | > 100 | > 100 | 36.2 |  |
| COc1ccc2c(c1)C(=O)c1c-2n(CCCN2CCOCC2)c(=O)c2ccccc12 | 4.54 | > 100 | 3.8 | > 93.1 | 2.55 | 13.6 | 2.39 | 10.2 |  |  |  |  |  |  |
| COc1cnc2c(c1)C(=O)c1c-2n(CCCN2CCCC2)c(=O)c2cc(Cl)ccc12 | 5.06 | 10.9 | 0.222 | 8.86 | 3.8 | 12.9 |  |  |  |  |  |  |  |  |
| COc1ccc(COCC(Cn2ccnc2)OCc2ccc(C(=O)O)cc2)cc1 (configuration not stated) |  |  |  |  |  |  |  |  | > 100 | > 100 | > 100 |  |  |  |
| N#CC1C(N)=NNC12Nc1ccccc1N2 (configuration not stated) | 14.1 | 63.7 | 24.5 | 74.5 | 6.55 | 31.6 | 10.8 | > 100 |  |  |  |  |  |  |
| O=c1cccccc1NCCCCCCCCCNc1cccccc1=O |  |  |  |  |  |  |  |  | > 100 | 19.1 | 24.4 |  |  |  |
| CC1CC2(CC[C@@H]1O)OCCO2 (some centres not stated) |  |  |  |  |  |  |  |  | > 100 |  | > 100 |  |  |  |
| Cc1c2ccncc2c(C)c2c1[nH]c1ccc(OC(C)(C)C)cc12 |  |  |  |  |  |  |  |  | 10.4 | 4.29 | 5.5 |  |  |  |
| Cc1ccc2c(c1)ncn2-c1ncnc2c1CC(C)c1ccccc1N2C (configuration not stated) |  |  | 0.058 | 30.4 | 0.314 | 8.25 | 0.244 | 15.6 |  |  |  |  |  |  |
| C=C(C)[C@@H]1CC[C@@]2(C)[C@H]1[C@H]1CCC3[C@@]4(C)CC[C@H](O)C(C)(C)[C@@H]4CC[C@@]3(C)[C@]1(C)C[C@@H]2O (some centres not stated) |  | 84.9 |  | > 100 |  | > 100 |  | > 100 |  |  |  |  |  | > 100 |
| Nc1nc(Nc2cccc(F)c2)nc2ccccc12 | 16.8 | 36.6 | 26.7 | 94.3 | 30.2 | > 100 | 37.3 | > 100 |  |  |  |  |  |  |
| CCc1c[nH]c2ncnc(N3CC[C@@](N)(CNC(=O)c4ccc(F)cc4F)C3)c12 | 33.5 | > 100 | 83.9 | > 100 | 17 | 55.3 | 42.2 | > 100 |  |  |  |  |  |  |
| CC(C)(Br)C(=O)/C=C/c1ccccc1 |  | 22.2 |  | > 75.5 |  | 3.76 |  | 22.9 |  |  |  |  |  | 21.4 |
| Oc1cc(Cl)ccc1Oc1ccc(Cl)cc1Cl | 2.86 | 9.24 | 2.81 | 7.93 | 2.62 | 5.95 | 4.61 | 16.3 |  |  |  |  |  |  |
| Cn1cc(-c2ccc3c(c2)CCN3C(=O)Cc2cccc(C(F)(F)F)c2)c2c(N)ncnc21 | 4.46 | 21.2 | 4.64 | 38.8 | 1.82 | 12.4 | 2.5 | 19.5 |  |  |  |  |  |  |
| CC(=O)OC1C2(CC3N4C(=O)C5(CO)SSC4(CC31O)C(=O)N5C)OC(C)C(C)(C)C2=O (configuration not stated) | 1.94 | 3.75 | < 0.042 | 0.879 | 0.146 | 0.728 |  | 0.267 |  |  |  |  |  |  |
| Clc1ccc2nc(Oc3ccccc3)cnc2c1 | > 100 | > 100 | > 100 | > 100 | > 100 | > 100 | > 100 | > 100 |  |  |  |  |  |  |
| CN(C)c1ccc(C(N)=O)cn1 |  | > 100 |  | > 100 |  | > 100 |  | > 100 |  |  |  |  |  | > 100 |
| O=C(O)c1c[nH]cc1C(=O)O |  |  |  |  |  |  |  |  | > 100 | > 100 | > 100 |  |  |  |
